Results published in PubChem BioAssay (NCI).
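How tested: cells in 96-well plates exposed to compound for 48 hours at five concentrations. At the TGI there is no net growth.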

Experiments:
Assay in all cases: NCI tumour cell line growth inhibition, 48 h
OVCAR-3 ovarian = system: OVCAR-3 ovarian
KM20L2 colon = system: KM20L2 colon
SK-MEL-2 melanoma = system: SK-MEL-2 melanoma
SNB-19 CNS = system: SNB-19 CNS
CAKI-1 renal = system: CAKI-1 renal
HOP-62 NSCLC = system: HOP-62 NSCLC
SNB-78 CNS = system: SNB-78 CNS
SF-268 CNS = system: SF-268 CNS
K-562 leukemia = system: K-562 leukemia
EKVX NSCLC = system: EKVX NSCLC
HOP-92 NSCLC = system: HOP-92 NSCLC
A498 renal = system: A498 renal
HL-60(TB) leukemia = system: HL-60(TB) leukemia
UACC-257 melanoma = system: UACC-257 melanoma
DMS 273 small cell lung = system: DMS 273 small cell lung
DLD-1 colon = system: DLD-1 colon
RXF 393 renal = system: RXF 393 renal
A549 NSCLC = system: A549 NSCLC
UACC-62 melanoma = system: UACC-62 melanoma
P388/ADR leukemia = system: P388/ADR leukemia
SN12C renal = system: SN12C renal
UO-31 renal = system: UO-31 renal
SK-MEL-5 melanoma = system: SK-MEL-5 melanoma
HOP-18 NSCLC = system: HOP-18 NSCLC
IGROV1 ovarian = system: IGROV1 ovarian
SW-620 colon = system: SW-620 colon
MOLT-4 leukemia = system: MOLT-4 leukemia
MALME-3M melanoma = system: MALME-3M melanoma
OVCAR-4 ovarian = system: OVCAR-4 ovarian
U251 CNS = system: U251 CNS
OVCAR-8 ovarian = system: OVCAR-8 ovarian
CCRF-CEM leukemia = system: CCRF-CEM leukemia
SNB-75 CNS = system: SNB-75 CNS
KM12 colon = system: KM12 colon
XF 498 CNS = system: XF 498 CNS
M19-MEL melanoma = system: M19-MEL melanoma
NCI-H23 lung = system: NCI-H23 lung
NCI-H226 lung = system: NCI-H226 lung
MCF7 breast = system: MCF7 breast
LOX IMVI melanoma = system: LOX IMVI melanoma
HCC-2998 colon = system: HCC-2998 colon
HCT-116 colon = system: HCT-116 colon
RPMI-8226 leukemia = system: RPMI-8226 leukemia
NCI-H460 lung = system: NCI-H460 lung
SK-OV-3 ovarian = system: SK-OV-3 ovarian
DMS 114 small cell lung = system: DMS 114 small cell lung
OVCAR-5 ovarian = system: OVCAR-5 ovarian
P388 leukemia = system: P388 leukemia
NCI-H522 lung = system: NCI-H522 lung
NCI/ADR-RES ovarian = system: NCI/ADR-RES ovarian
SK-MEL-28 melanoma = system: SK-MEL-28 melanoma
SF-539 CNS = system: SF-539 CNS
HT29 colon = system: HT29 colon
COLO 205 colon = system: COLO 205 colon
HCT-15 colon = system: HCT-15 colon
SF-295 CNS = system: SF-295 CNS
SN12K1 renal = system: SN12K1 renal
MDA-MB-231 breast = system: MDA-MB-231 breast
MDA-N = system: MDA-N
TK-10 renal = system: TK-10 renal
BT-549 breast = system: BT-549 breast
786-0 renal = system: 786-0 renal
ACHN renal = system: ACHN renal
SR leukemia = system: SR leukemia
HS 578T breast = system: HS 578T breast
PC-3 prostate = system: PC-3 prostate
DU-145 prostate = system: DU-145 prostate
MDA-MB-435 = system: MDA-MB-435
T-47D breast = system: T-47D breast
M14 melanoma = system: M14 melanoma

CN(C)CCNC(=O)c1cccc2[nH]c(-c3ccccn3)nc12
TGI (OVCAR-3 ovarian): > 100 µM | TGI (KM20L2 colon): > 100 µM | TGI (SK-MEL-2 melanoma): > 100 µM | TGI (SNB-19 CNS): > 100 µM | TGI (CAKI-1 renal): 78.1 µM | TGI (HOP-62 NSCLC): > 90.8 µM | TGI (SNB-78 CNS): > 100 µM | TGI (SF-268 CNS): > 59.3 µM | TGI (K-562 leukemia): > 100 µM | TGI (EKVX NSCLC): > 100 µM | TGI (HOP-92 NSCLC): 80.8 µM | TGI (A498 renal): > 94.8 µM | TGI (HL-60(TB) leukemia): > 78.7 µM | TGI (UACC-257 melanoma): > 93.6 µM | TGI (DMS 273 small cell lung): > 72.2 µM | TGI (DLD-1 colon): > 100 µM | TGI (RXF 393 renal): > 100 µM | TGI (A549 NSCLC): > 100 µM | TGI (UACC-62 melanoma): 42.7 µM | TGI (P388/ADR leukemia): 53.5 µM | TGI (SN12C renal): > 100 µM | TGI (UO-31 renal): > 72.4 µM | TGI (SK-MEL-5 melanoma): 48.7 µM | TGI (HOP-18 NSCLC): > 87 µM | TGI (IGROV1 ovarian): > 100 µM | TGI (SW-620 colon): > 100 µM | TGI (MOLT-4 leukemia): 70.6 µM | TGI (MALME-3M melanoma): > 65.4 µM | TGI (OVCAR-4 ovarian): > 78.6 µM | TGI (U251 CNS): > 100 µM | TGI (OVCAR-8 ovarian): > 100 µM | TGI (CCRF-CEM leukemia): > 100 µM | TGI (SNB-75 CNS): 92.8 µM | TGI (KM12 colon): > 100 µM | TGI (XF 498 CNS): > 100 µM | TGI (M19-MEL melanoma): > 91.8 µM | TGI (NCI-H23 lung): > 100 µM | TGI (NCI-H226 lung): 60.8 µM | TGI (MCF7 breast): > 100 µM | TGI (LOX IMVI melanoma): > 90.1 µM | TGI (HCC-2998 colon): > 100 µM | TGI (HCT-116 colon): > 65.2 µM | TGI (RPMI-8226 leukemia): 62.3 µM | TGI (NCI-H460 lung): > 58.4 µM | TGI (SK-OV-3 ovarian): > 100 µM | TGI (DMS 114 small cell lung): > 80.2 µM | TGI (OVCAR-5 ovarian): > 100 µM | TGI (P388 leukemia): 34.7 µM | TGI (NCI-H522 lung): > 63.8 µM | TGI (NCI/ADR-RES ovarian): > 87.7 µM | TGI (SK-MEL-28 melanoma): > 58 µM | TGI (SF-539 CNS): > 100 µM | TGI (HT29 colon): > 66.7 µM | TGI (COLO 205 colon): 33.6 µM | TGI (HCT-15 colon): > 100 µM | TGI (SF-295 CNS): > 100 µM | TGI (SN12K1 renal): > 100 µM

CS(=O)(=O)CS(=O)(=O)OCCCl
TGI (OVCAR-3 ovarian): 983 µM | TGI (KM20L2 colon): 1240 µM | TGI (SK-MEL-2 melanoma): 856 µM | TGI (MDA-MB-231 breast): 918 µM | TGI (SNB-19 CNS): 969 µM | TGI (CAKI-1 renal): 799 µM | TGI (HOP-62 NSCLC): 151 µM | TGI (MDA-N): 470 µM | TGI (SNB-78 CNS): 420 µM | TGI (TK-10 renal): 1280 µM | TGI (SF-268 CNS): 990 µM | TGI (K-562 leukemia): 3120 µM | TGI (EKVX NSCLC): 1080 µM | TGI (HOP-92 NSCLC): 824 µM | TGI (A498 renal): 1350 µM | TGI (HL-60(TB) leukemia): 541 µM | TGI (UACC-257 melanoma): 808 µM | TGI (DMS 273 small cell lung): 995 µM | TGI (BT-549 breast): 181 µM | TGI (DLD-1 colon): 1450 µM | TGI (RXF 393 renal): 611 µM | TGI (A549 NSCLC): 1640 µM | TGI (UACC-62 melanoma): 268 µM | TGI (P388/ADR leukemia): 447 µM | TGI (SN12C renal): 706 µM | TGI (UO-31 renal): 1080 µM | TGI (SK-MEL-5 melanoma): 777 µM | TGI (HOP-18 NSCLC): 1380 µM | TGI (IGROV1 ovarian): 911 µM | TGI (SW-620 colon): 1100 µM | TGI (MOLT-4 leukemia): 629 µM | TGI (MALME-3M melanoma): 1270 µM | TGI (OVCAR-4 ovarian): 1040 µM | TGI (786-0 renal): 514 µM | TGI (U251 CNS): 664 µM | TGI (OVCAR-8 ovarian): 1270 µM | TGI (ACHN renal): 524 µM | TGI (CCRF-CEM leukemia): 687 µM | TGI (SR leukemia): 876 µM | TGI (SNB-75 CNS): 256 µM | TGI (KM12 colon): 1120 µM | TGI (HS 578T breast): 1790 µM | TGI (M19-MEL melanoma): 937 µM | TGI (NCI-H23 lung): 494 µM | TGI (NCI-H226 lung): 785 µM | TGI (PC-3 prostate): 990 µM | TGI (MCF7 breast): 1420 µM | TGI (LOX IMVI melanoma): 497 µM | TGI (DU-145 prostate): 748 µM | TGI (HCC-2998 colon): 727 µM | TGI (HCT-116 colon): 661 µM | TGI (RPMI-8226 leukemia): 3170 µM | TGI (NCI-H460 lung): 448 µM | TGI (SK-OV-3 ovarian): 423 µM | TGI (DMS 114 small cell lung): 339 µM | TGI (OVCAR-5 ovarian): 1260 µM | TGI (P388 leukemia): 306 µM | TGI (NCI-H522 lung): 723 µM | TGI (MDA-MB-435): 2330 µM | TGI (T-47D breast): 1530 µM | TGI (NCI/ADR-RES ovarian): 1960 µM | TGI (SK-MEL-28 melanoma): 1510 µM | TGI (SF-539 CNS): 266 µM | TGI (HT29 colon): 1320 µM | TGI (COLO 205 colon): 831 µM | TGI (HCT-15 colon): 1090 µM | TGI (M14 melanoma): 770 µM | TGI (SF-295 CNS): 554 µM | TGI (SN12K1 renal): 963 µM
